The values below come from patent US20240376097A1, “BCL-2 Inhibitor” (BeiGene Ltd., priority 2020, published 2024).

Test [1] addresses Recombinant human Bcl-2 protein (Homo sapiens (Human), UniProt P10415). Briefly: Bcl-2 TR-FRET Assay. It counts as binding. The method in brief: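 0.05 nM Bcl-2 pre-incubated 0.5 h at room temperature with 10-point compound dilutions (top final 1, 0.1, 0.02 or 0.01 uM) in 20 mM potassium phosphate pH 7.5, 50 mM NaCl, 1 mM EDTA, 0.05% Tween-20, 0.01% BSA; FITC-Bak peptide (0.5 nM) and anti-6His Tb cryptate added, 1 h. IC50 from four-parameter logistic fit.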
For orientation: In TR-FRET formats the signal depends on donor and acceptor labels being close together.

The target in test [2] is recombinant human Bcl-2-G101V protein (Homo sapiens (Human), UniProt P10415, G101V). Description: Bcl-2-G101V TR-FRET Assay. It is filed as binding. The note with it: Bcl-2 G101V mutant, TR-FRET; read-out: Biochemical assay (IC50, nM) Bcl-2 G101V. The method in brief:
(§1)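 Displacement of ligand from recombinant human Bcl-2-G101V measured by TR-FRET (ex337 nm, em490/520 nm), inhibition derived from the 490/520 ratio across compound titrations. IC50 from four-parameter logistic fit.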

Test [3] deals with recombinant human Bcl-2-G101V protein. Description: Bcl-2-G101V TR-FRET Assay. It is filed as binding. The note with it: ratio of biochemical IC50 Bcl-2 G101V / Bcl-2 WT. The method in brief: as §1
Test [4] has as its system RS4;11 (BCL-2 dependent acute lymphoblastic leukemia cell line). Briefly: RS4;11 Cell Proliferation Assay. It is filed as cell-based. The note with it: Homo sapiens, RS4-11, RS4;11 cells, read-out: Cellular proliferation assay (IC50, nM) RS4. In a few lines:
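RS4;11 cells, 50,000 per well in RPMI-1640 with 10% FBS, treated 48 h at 37 °C with a 10-point dilution series topping at 1 μM. Viability read by CellTiter-Glo ATP luminescence; mean IC50 reported.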

Test [5] concerns BCL-2 G101V knock-in cell line H96 (derive from RS4;11). Briefly: Bcl 2-G101V Knock-In RS4;11 Cell Proliferation Assay. It counts as cell-based. The conditions noted are these: Homo sapiens, RS4;11 Bcl-2 G101V knock-in clone H96, 48 hrs, CellTiter-GLO, read-out: Cellular proliferation assay (IC50, nM) RS4. In a few lines: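 H96, a CRISPR-generated RS4;11 clone carrying BCL2-G101V knock-in (WES/RNA-seq validated), seeded 50,000 per well and exposed 48 h at 37 °C to 10-point dilutions topping at 1 or 10 μM. Viability by CellTiter-Glo luminescence; mean IC50.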
For orientation: Cellular ATP, detected with luciferase, serves as a proxy for viable cell number.

The target of test [6] is recombinant human Bcl-2 D103Y protein (Homo sapiens (Human), UniProt P10415, D103Y). Description: Bcl-2-D103Y Biochemical Assay (TR-FRET). The conditions noted are these: for IC50: TR-FRET, FITC labeled Bak peptide; for Ratio of Bcl-2 D103Y/Bcl-2 WT: ratio of IC50. It counts as binding. In a few lines: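 Recombinant human Bcl-2 D103Y binding to its ligand measured by TR-FRET (ex 337 nm, em 490/520 nm) with increasing compound concentrations. Percent inhibition from the 490/520 nm ratio; IC50 from four-parameter logistic fit.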

[7] abbreviates: Bcl-2 wild type, TR-FRET, read-out: Biochemical assay (IC50, nM) Bcl-2 WT.
Setting [8] is: wild type Bcl-2, unit inferred, read-out: Bcl-2 WT.

Where two headings read alike, the source gives them in different places.

Regarding `CC(C)c1ccccc1C1CN(C2CCC2)CCN1C1CC2(CCN(c3ccc(C(=O)NS(=O)(=O)c4ccc(NC[C@H]5CC[C@](C)(O)CC5)c([N+](=O)[O-])c4)c(Oc4cnc5[nH]ccc5c4)c3)CC2)C1` (stereo partly drawn) [Example 5, 2-((1H-pyrrolo[2,3-b]pyridin-5-yl)oxy)-4-(2-(4-cyclobutyl-2-(2-isopropylphenyl)piperazin-1-yl)-7-azaspiro[3.5]nonan-7-yl)-N-((4-((((1r,4r)-4-hydroxy-4-methylcyclohexyl)methyl)amino)-3-nitrophenyl)sulfonyl)benzamide], the IC50 worked out at 0.037 nM in test [1] (setting [7]); 0.037 nM in test [1] (setting [8]); 0.45 nM in test [2]; 0.58 nM in test [4]; 5.33 nM in test [5]; 320 pM in test [6]. In test [3], the “Ratio of Bcl-2 G101V/WT” value stood at 12.2. The “Ratio of Bcl-2 D103Y/Bcl-2 WT” value in test [6] was 12.
With `COc1ccc(CN2CCN(C3CC4(CCN(c5ccc(C(=O)NS(=O)(=O)c6ccc(NC[C@H]7CC[C@](C)(O)CC7)c([N+](=O)[O-])c6)c(Oc6cnc7[nH]ccc7c6)c5)CC4)C3)C(c3ccccc3C(C)C)C2)nc1OC` (stereo partly drawn) [Example 194, 2-((1H-pyrrolo[2,3-b]pyridin-5-yl)oxy)-4-(2-(4-((5,6-dimethoxypyridin-2-yl)methyl)-2-(2-isopropylphenyl)piperazin-1-yl)-7-azaspiro[3.5]nonan-7-yl)-N-((4-((((1r,4r)-4-hydroxy-4-methylcyclohexyl)methyl)amino)-3-nitrophenyl)sulfonyl)benzamide], the IC50 in test [1] (setting [7]) was determined as 0.051 nM; in test [1] (setting [8]), 0.051 nM; in test [2], 0.16 nM; in test [4], 0.3 nM; in test [5], 0.82 nM; in test [6], 72 pM. Further, the “Ratio of Bcl-2 G101V/WT” value in test [3] was 3.1. Also, the “Ratio of Bcl-2 D103Y/Bcl-2 WT” value in test [6] came out at 1.4.
Consider `COc1cc(CN2CCN(C3CC4(CCN(c5ccc(C(=O)NS(=O)(=O)c6ccc(NC[C@H]7CC[C@](C)(O)CC7)c([N+](=O)[O-])c6)c(Oc6cnc7[nH]ccc7c6)c5)CC4)C3)C(c3ccccc3C(C)C)C2)ccc1F` (stereo partly drawn) [Example 121, 2-((1H-pyrrolo[2,3-b]pyridin-5-yl)oxy)-4-(2-(4-(4-fluoro-3-methoxybenzyl)-2-(2-isopropylphenyl)piperazin-1-yl)-7-azaspiro[3.5]nonan-7-yl)-N-((4-((((1r,4r)-4-hydroxy-4-methylcyclohexyl)methyl)amino)-3-nitrophenyl)sulfonyl)benzamide], for which the IC50 came to 0.28 nM in test [1] (setting [7]); 0.28 nM in test [1] (setting [8]); 1.1 nM in test [2]; 0.24 nM in test [4]; 1.13 nM in test [5]; 420 pM in test [6]. For the same compound, the “Ratio of Bcl-2 G101V/WT” value in test [3] came to 3.8. Also, in test [6], the “Ratio of Bcl-2 D103Y/Bcl-2 WT” value is on record as 1.5.
`COc1ccccc1CN1CCN(C2CC3(CCN(c4ccc(C(=O)NS(=O)(=O)c5ccc(NC[C@H]6CC[C@](C)(O)CC6)c([N+](=O)[O-])c5)c(Oc5cnc6[nH]ccc6c5)c4)CC3)C2)C(c2ccccc2C(C)C)C1` (stereo partly drawn) [Example 47, 2-((1H-pyrrolo[2,3-b]pyridin-5-yl)oxy)-N-((4-((((1r,4r)-4-hydroxy-4-methylcyclohexyl)methyl)amino)-3-nitrophenyl)sulfonyl)-4-(2-(2-(2-isopropylphenyl)-4-(2-methoxybenzyl)piperazin-1-yl)-7-azaspiro[3.5]nonan-7-yl) benzamide]: the IC50 in test [1] (setting [7]) is 0.12 nM; in test [1] (setting [8]) it was 0.12 nM; in test [2], 0.53 nM; in test [4] it was 1 nM; in test [5] it was 5.33 nM; in test [6] it was 400 pM. For the same compound, the “Ratio of Bcl-2 G101V/WT” value in test [3] is 4.4. The “Ratio of Bcl-2 D103Y/Bcl-2 WT” value in test [6] is 3.3.
For `[2H]C([2H])([2H])Oc1cc(CN2CCN(C3CC4(C3)CN(c3ccc(C(=O)NS(=O)(=O)c5ccc(NC[C@H]6CC[C@](C)(O)CC6)c([N+](=O)[O-])c5)c(Oc5cnc6[nH]ccc6c5)c3)C4)[C@H](c3ccccc3C(C)C)C2)cc2ccoc12` [Example 323, 2-((1H-pyrrolo[2,3-b]pyridin-5-yl)oxy)-N-((4-((((1r,4r)-4-hydroxy-4-methylcyclohexyl)methyl)amino)-3-nitrophenyl)sulfonyl)-4-(6-((R)-2-(2-isopropylphenyl)-4-((7-(methoxy-d3)benzofuran-5-yl)methyl)piperazin-1-yl)-2-azaspiro [3.3]heptan-2-yl)benzamide], the IC50 amounted to 0.22 nM in test [1] (setting [7]); 0.22 nM in test [1] (setting [8]); 0.45 nM in test [2]; 0.21 nM in test [4]; 0.42 nM in test [5]; 190 pM in test [6]. Besides, the “Ratio of Bcl-2 G101V/WT” value in test [3] was found to be 2.1. Besides, the “Ratio of Bcl-2 D103Y/Bcl-2 WT” value in test [6] is given as 0.87.
For `COc1cc(CN2CCN(C3CC4(C3)CN(c3ccc(C(=O)NS(=O)(=O)c5ccc(NC[C@H]6CC[C@](C)(O)CC6)c([N+](=O)[O-])c5)c(Oc5cnc6[nH]ccc6c5)c3)C4)[C@H](c3ccccc3C(C)C)C2)cnc1OC` [Example 242, 2-((1H-pyrrolo[2,3-b]pyridin-5-yl)oxy)-4-(6-((R)-4-((5,6-dimethoxypyridin-3-yl)methyl)-2-(2-isopropylphenyl)piperazin-1-yl)-2-azaspiro[3.3]heptan-2-yl)-N-((4-((((1r,4r)-4-hydroxy-4-methylcyclohexyl)methyl)amino)-3-nitrophenyl)sulfonyl)benzamide], the IC50 worked out at 0.03 nM in test [1] (setting [7]); 0.03 nM in test [1] (setting [8]); 0.077 nM in test [2]; 0.17 nM in test [4]; 0.28 nM in test [5]; 33 pM in test [6]. The “Ratio of Bcl-2 G101V/WT” value in test [3] was 2.6. Moreover, the “Ratio of Bcl-2 D103Y/Bcl-2 WT” value in test [6] was determined as 1.1.
For `CC(C)c1ccccc1[C@@H]1CN(Cc2ccc(OC3CC3)cc2)CCN1C1CC2(C1)CN(c1ccc(C(=O)NS(=O)(=O)c3ccc(NC[C@H]4CC[C@](C)(O)CC4)c([N+](=O)[O-])c3)c(Oc3cnc4[nH]cc(F)c4c3)c1)C2` [Example 365], the IC50 in test [1] (setting [7]) stood at 0.46 nM; in test [2], 1.3 nM; in test [4] it was 0.12 nM; in test [5] it was 0.26 nM; in test [6], 510 pM. The “Ratio of Bcl-2 G101V/WT” value in test [3] is reported as 2.9. In addition, in test [6], the “Ratio of Bcl-2 D103Y/Bcl-2 WT” value stood at 1.1.
Regarding `CC(C)c1ccccc1[C@@H]1CN(Cc2ccnc3c2OCC(C)(C)O3)CCN1C1CC2(C1)CN(c1ccc(C(=O)NS(=O)(=O)c3ccc(NC[C@H]4CC[C@](C)(O)CC4)c([N+](=O)[O-])c3)c(Oc3cnc4[nH]cc(F)c4c3)c1)C2` [Example 317], the IC50 in test [1] (setting [7]) came to 0.033 nM; in test [1] (setting [8]), 0.033 nM; in test [2] it was 0.12 nM; in test [4], 0.19 nM; in test [5], 0.43 nM; in test [6], 57 pM. Moreover, in test [3], the “Ratio of Bcl-2 G101V/WT” value stood at 3.6. The “Ratio of Bcl-2 D103Y/Bcl-2 WT” value in test [6] was determined as 1.7.
